Measured values: patent publication US12351878B2, “Identification of HER2 mutations in lung cancer and methods of treatment” (THE TRANSLATIONAL GENOMICS RESEARCH INSTITUTE, priority 2018, dated 2025)
“Also recorded” adds a separate entry of the source. Read-outs that look alike come from different tables or passages of the source.

Experiments:
[1] = system: HER2-mutant cell lines (HER2 V659E cPAC lines, BT474, H1781); assay: 72 hour drug dose-response, CellTiter-Glo cell viability; assay type: cell-based, canine and human; settings: all HER2-mutant cell lines
Description: Sample Collection: Tumors and cell lines from 89 dogs from the Canine Comparative Oncology and Genomics Consortium (CCOGC) (11) and The Ohio State University (OSU) College of Veterinary Medicine Biospecimen Repository were included. Board-certified veterinary pathologists confirmed tumor diagnosis based on histopathology. Tumor and normal tissue samples were flash frozen in liquid nitrogen or formalin-fixed and paraffin-embedded (FFPE). Cell lines were maintained in RPMI 1640 with GlutaMAX™ (Gibco™, Thermo Fisher Scientific, #61870036) supplemented with 10% heat-inactivated fetal bovine serum at 37° C. and 5% CO2 and passaged at 90% confluence. […]
Cells were cultured in RPMI supplemented with 10% FBS and 1% Penicillin/Streptomycin. Luminescence was read using Synergy Mx (Biotek) plate reader. […]
We first assessed differential sensitivity of HER2 V659E and HER2 WT canine lung cancer cell lines to lapatinib (HER2 and EGFR inhibitor) and neratinib (HER2, HER4, and EGFR inhibitor). […] Given that HER2 receptors dimerize with EGFR, we then evaluated differential sensitivity of the five canine cell lines and the human BT474 control line to the EGFR inhibitor, erlotinib.

[2] = system: p-AKT in BT474 (HER2amp); assay: Western blot of phospho-AKT and AKT under serum starvation; assay type: cell-based, human; settings: 5 doses 20-2000 nmol/L
Protocol: […]
(§1) Immunoblot Analyses: Subconfluent cells were serum starved overnight, then treated with 20 nM neuregulin for 15 min prior to harvest. […] Membranes were blocked for 1 hour in LiCor blocking buffer and incubated with primary antibody at 4° C., overnight, followed by fluorescence-conjugated secondary antibodies. […]

[3] = system: p-AKT in OSUK9PAPADRi (HER2 V659E); assay: as above; assay type: cell-based, canine; settings: 5 doses 20-2000 nmol/L
Protocol: […]
as §1

[4] = system: p-AKT in OSUK9PAPADO (HER2 WT); assay: as above; assay type: cell-based, canine; settings: 5 doses 20-2000 nmol/L
Protocol: […]
as §1

[5] = system: HER2 WT cPAC cell lines; assay: 72 hour drug dose-response, CellTiter-Glo cell viability; assay type: cell-based, canine; settings: Canis lupus familiaris
Description: (§2) Sample Collection: Tumors and cell lines from 89 dogs from the Canine Comparative Oncology and Genomics Consortium (CCOGC) (11) and The Ohio State University (OSU) College of Veterinary Medicine Biospecimen Repository were included. Board-certified veterinary pathologists confirmed tumor diagnosis based on histopathology. Tumor and normal tissue samples were flash frozen in liquid nitrogen or formalin-fixed and paraffin-embedded (FFPE). Cell lines were maintained in RPMI 1640 with GlutaMAX™ (Gibco™, Thermo Fisher Scientific, #61870036) supplemented with 10% heat-inactivated fetal bovine serum at 37° C. and 5% CO2 and passaged at 90% confluence. Cell lines with known passage data (except BACA) were sequenced within the first eight passages of derivation and subsequently expanded for phenotypic studies, and were authenticated by IDEXX BioResearch (Columbia, MO) using the Cell Check Canine STR Profile and Interspecies Contamination Test or by NkX2 (or TTF-1) RT-PCR. Human cell lines included BT474 (ATCC #HTB20, HER2 focal amplification) and H1781 (ATCC #CRL-5894, HER2 […]). Blood for cell-free DNA (cfDNA) and germline DNA extraction was collected in 10 ml K2 EDTA Blood tubes (Thermo Fisher Scientific #22-253-145). Plasma separation was performed at room temperature within 1 hour (2× serial centrifugation at 2000 rpm×15 minutes). Plasma aliquots were stored frozen at −80° C. DNA extraction from plasma, white blood cells and tissue was performed with MagMAX Cell-Free DNA Isolation Kit (Thermo Fisher Scientific #A29319), DNeasy Blood and Tissue Kit (QIAGEN #69504) and Qiagen AllPrep DNA/RNA Mini Kit (QIAGEN #80204), respectively.
(§3) Cells were cultured in RPMI supplemented with 10% FBS and 1% Penicillin/Streptomycin. Luminescence was read using Synergy Mx (Biotek) plate reader. Six replicates were performed for each dose. Curve-fitting and IC50 calculations were performed using GraphPad Prism v7.00 (GraphPad Software).
(§4) We first assessed differential sensitivity of HER2 V659E and HER2 WT canine lung cancer cell lines to lapatinib (HER2 and EGFR inhibitor) and neratinib (HER2, HER4, and EGFR inhibitor). Five cPAC cell lines (two HER2 V659E and three HER2 WT) were treated with neratinib and four (one HER2 V659E and three HER2 WT) with lapatinib for 72 hours. Two HER2-mutant human cancer cell lines-BT474 (HER2 AMP) and H1781 (kinase domain HER2 G776ins)—were treated as positive drug controls (18, 21) (FIGS. 2B and 6). […] Given that HER2 receptors dimerize with EGFR, we then evaluated differential sensitivity of the five canine cell lines and the human BT474 control line to the EGFR inhibitor, erlotinib.

[6] = system: HER2 V659E cPAC cell lines; assay: as above; assay type: cell-based, canine; settings: for IC50: Canis lupus familiaris; for sensitivity of HER2 V659E lines relative to HER2 wild-type cell lines: in vitro viability
Description: as §2, §3, §4

[7] = 72 h, read-out: IC50, viability

SMILES	IC50 [1] [nM]	p-AKT level by Western blot [2]	p-AKT level by Western blot [3]	p-AKT level by Western blot [4]	IC50 ([5]; 72 h, read-out: IC50, viability, HER2 WT cPAC cell lines, 72 hours, both TKIs) [nM]	IC50 ([5]; 72 h, read-out: IC50, viability, HER2WT cells, 72 hours, p=0.0079 vs HER2-mutant) [nM]	IC50 [6, 7] [nM]	sensitivity of HER2 V659E lines relative to HER2 wild-type cell lines [6]	IC50 [5, 7] [nM]	IC50 ([6]; 72 h, read-out: IC50, viability, one of the two HER2 V659E lines, 72 hours) [nM]	IC50 ([6]; 72 h, read-out: IC50, viability, other of the two HER2 V659E lines, 72 hours) [nM]	sensitivity of HER2-mutant canine cell lines ([6]; two HER2-mutant cell lines)	IC50 ([5]; HER2 WT cPAC cell lines, 72 hours, both TKIs, read-out: IC50, viability) [nM]	IC50 ([6]; HER2 V659E cPAC cell lines, 72 hours, both TKIs, read-out: IC50, viability) [nM]
CCOc1cc2ncc(C#N)c(Nc3ccc(OCc4ccccn4)c(Cl)c3)c2cc1NC(=O)/C=C/CN(C)C [neratinib]	< 50	dose-dependent decrease in p-AKT	dose-dependent decrease in p-AKT	low at all treatment levels	> 2500	> 2700	< 200	selectively sensitive; also recorded: hypersensitivity	–	–	–	–	–	–
C#Cc1cccc(Nc2ncnc3cc(OCCOC)c(OCCOC)cc23)c1 [erlotinib]	–	–	–	–	–	–	–	–	1100 to 15400	220	1170	One of two HER2-mutant cell lines showed erlotinib sensitivity	–	–
CS(=O)(=O)CCNCc1ccc(-c2ccc3ncnc(Nc4ccc(OCc5cccc(F)c5)c(Cl)c4)c3c2)o1 [lapatinib]	–	–	–	–	–	–	–	selectively sensitive; also recorded: hypersensitivity	–	–	–	–	> 2500	< 200
